Source: US20110053897A1 (IRM LLC, priority 2009, published 2011)

Target: T1, Syk kinase (Homo sapiens, UniProt P43405)
T1 construct: purchased
Test: Syk kinase inhibition, Caliper LabChip off-chip mobility-shift kinase assay
Type: biochemical
Conditions: Caliper LabChip assay; read-out: Syk Enzyme IC50
Description: Compounds of the examples and Table 1 provided herein were assayed to measure their capacity to inhibit Syk kinase.
Compounds of the examples and Table 1 provided herein were assessed for their ability to inhibit Syk kinase by utilizing Caliper Life Sciences' proprietary LabChip™ technology. The off-chip incubation mobility-shift kinase assay uses a microfluidic chip to measure the conversion of a fluorescent peptide substrate to a phosphorylated product. The reaction mixture, from a microtiter plate well, is introduced through a capillary sipper onto the chip, where the nonphosphorylated substrate and phosphorylated product are separated by electrophoresis and detected via laser induced fluorescence. […] The phosphorylated product migrates through the chip faster than the non-phosphorylated substrate, and signals from the two forms of the peptide appear as distinct peaks. Caliper's data analysis software (HTSWA) determines peak heights, from which the ratio of product to the peak sum P/(P+S) and percent (%) conversion is calculated. This value is used to compare compound wells to control wells present on the plate, and thereby determine the % inhibition values for the compound. The formula used to calculate % inhibition is as follows, where C100% is the average % conversion of the 100% activity wells and Co% is the average % conversion of the 0% activity wells: (1−(% conversionofsample−C0%)/(C100%−C0%))*100.
Compounds (10 mM stocks in 100% DMSO) are diluted to a final concentration of 5 μM for single point inhibition experiments, and a series dilution of 10, 3, 1, 0.3, 0.1, 0.03, 0.01, 0.003, 0.001, 0.0003, 0.0001, and 0.00003 μM were made for IC50 determination. Generally, 12 μL of enzyme buffer containing purified kinase (various amount; various suppliers), 100 mM HEPES, pH 7.5, 1 mM DTT (Calbiochem, 2333153), 10 mM MgCl2 (Sigma, M-1028) or 10 mM MnCl2 (Sigma, M-1787) (assay specific), and 0.002% Brij-35 (Sigma, B4184) are added to each well. Compound and enzyme are allowed to pre-incubate for 15 minutes. 12 μL of peptide/ATP buffer containing 100 mM HEPES, pH 7.5, 1.5 μM fluorescein-labeled peptide (specific to kinase of interest), ATP (at KM apparent, Sigma, A9187), and 0.002% Brij-35 is then added to each well to initiate the reaction. The final concentration of DMSO in the well is 4%. Generally, reactions are incubated for 1 to 1.5 hours at room temperature to obtain adequate conversion of peptide to phosphorylated product in the linear range of the reaction. Reactions are terminated with the addition of 45 μL of Stop Buffer (containing 20 mM EDTA). Plates are then read on the LabChip 3000 using a 12-sipper LabChip. % conversion values and % inhibition values are obtained as provided and IC50 curves of compounds are generated using GraphPad Prism Version 4 or 5.01, or XLfit Version 4.3.2. When using GraphPad Prism, a nonlinear curve fit using the sigmoidal dose response—variable slope fit was used to graph IC50 curves and determine IC50 values and hillslopes. When using XLfit, Fit Model 205 (4-Parameter Logistic Model) is used to generate and fit the IC50 curve.

Row | IC50 | SMILES
1 | 299 nM | CCn1ccc2cc(Nc3cnccn3)nc(NCCC(F)(F)F)c2c1=O [compound 781]
2 | 66 nM | Nc1ncc(-c2cc3ccn(CC4(CO)COC4)c(=O)c3c(NC3CCCC3)n2)cn1 [compound 761]
3 | 359 nM | Nc1nc(Nc2nccc(O)n2)cc2ccn(CCO)c(=O)c12 [compound 812]
4 | 307 nM | CCn1ccc2cc(Nc3nccc(O)n3)nc(N)c2c1=O [compound 803]
5 | 43 nM | CC(C)(C)Nc1nc(-c2cnc(N)nc2)cc2ccn(CC(N)=O)c(=O)c12 [compound 663]
6 | 60.4 nM | [2H]C([2H])([2H])n1ccc2cc(Nc3cc(Cl)ccn3)nc(N[C@@H](C)CO)c2c1=O [compound 1051]
7 | 18 nM | CC(C)(C)Nc1nc(Nc2cnccn2)cc2ccn(Cc3c[nH]nn3)c(=O)c12 [compound 881]
8 | 579 nM | CC(C)(C)Nc1nc(Nc2cc(C(C)(C)C(N)=O)ccn2)cc2ccn(CCO)c(=O)c12 [compound 862]
9 | 148 nM | CC1(Nc2nc(Nc3cc(C(C)(C)O)ncn3)cc3ccn(CC(N)=O)c(=O)c23)CC1 [compound 620]
10 | 51 nM | Cc1ccnc(Nc2cc3ccn(C(C)C)c(=O)c3c(N[C@H]3CC[C@H](O)CC3)n2)c1 [compound 964]
11 | 237 nM | COCCNCc1ccnc(Nc2cc3ccn(CCO)c(=O)c3c(NC(C)(C)C)n2)c1 [compound 694]
12 | 247 nM | CC(C)Nc1nc(Nc2cc(-c3cccnc3)ccn2)cc2cc[nH]c(=O)c12 [compound 1045]
13 | 11 nM | COCc1ccnc(Nc2cc3ccn(CCO)c(=O)c3c(NC(C)(C)C)n2)c1 [compound 709]
14 | 72 nM | CCn1ccc2cc(Nc3cc(C)ccn3)nc(N[C@@H]3CC[C@H](CO)C3)c2c1=O (stereo in doubt) [compound 789]
15 | 145 nM | CC(C)(Cc1ccc(F)cc1)Nc1nc(-c2cnc(N)nc2)cc2ccn(CCO)c(=O)c12 [compound 925]
16 | 13 nM | C[C@H](O)c1ccnc(Nc2cc3ccn(CCO)c(=O)c3c(NC(C)(C)C)n2)c1 [compound 714]
17 | 138 nM | CC(C)(C)Nc1nc(Nc2cnccn2)cc2ccn(C3CS(=O)(=O)C3)c(=O)c12 [compound 1015]
18 | 216 nM | CC(C)(C)Nc1nc(Nc2cc(CNC3COC3)ccn2)cc2ccn(CCO)c(=O)c12 [compound 605]
19 | 10 nM | CC(C)(C)Nc1nc(Nc2cnccn2)cc2ccn(CCC(N)=O)c(=O)c12 [compound 661]
20 | 6 nM | CN1CCC(Oc2cc(Nc3cc4ccn(CCO)c(=O)c4c(NC(C)(C)C)n3)ncn2)CC1 [compound 648, 8-(tert-butylamino)-2-(2-hydroxyethyl)-6-(6-(1-methylpiperidin-4-yloxy)pyrimidin-4-ylamino)-2,7-naphthyridin-1(2H)-one]
21 | 89.9 nM | [2H]C([2H])([2H])n1ccc2cc(Nc3cc(C)c(F)cn3)nc(NC(C)(C)CO)c2c1=O [compound 1049]
22 | 30 nM | COCCn1ccc2cc(-c3cnc(N)nc3)nc(NC(C)(C)C)c2c1=O [compound 910]
23 | 20 nM | CC(C)(C)CNc1nc(Nc2cnccn2)cc2ccn(CCO)c(=O)c12 [compound 898]
24 | 29 nM | CC(C)(C)Nc1nc(Nc2cc(CO)ncn2)cc2ccn(CCO)c(=O)c12 [Compound No. 607, 8-(tert-butylamino)-2-(2-hydroxyethyl)-6-(6-(hydroxymethyl)pyrimidin-4-ylamino)-2,7-naphthyridin-1(2H)-one]
25 | 131 nM | CC(C)(C)Nc1nc(Nc2cc(C(C)(C)O)ccn2)cc2ccn(CCO)c(=O)c12 [compound 698, 8-(tert-butylamino)-2-(2-hydroxyethyl)-6-(4-(2-hydroxypropan-2-yl)pyridin-2-ylamino)-2,7-naphthyridin-1(2H)-one]
26 | 12 nM | COCC(O)Cn1ccc2cc(Nc3cnccn3)nc(NC(C)(C)C)c2c1=O (centres unmarked) [compound 677]

Same assay, conditions: read-out: Syk Enzyme IC50

Row | IC50 | SMILES
27 | 28 nM | Cn1ccc2cc(Nc3cc(Cl)ccn3)nc(N[C@H]3CC[C@H](O)CC3)c2c1=O [compound 385]
28 | 59 nM | Nc1ncc(-c2cc3cc[nH]c(=O)c3c(N[C@@H]3CCC[C@H]3O)n2)cn1 [compound 184]
29 | 249 nM | Cc1cc(Nc2nc(Nc3cc(C(=O)O)ccn3)cc3cc[nH]c(=O)c23)ccc1C1CCN(C2CC2)CC1 [compound 261]
30 | 107 nM | CCN1CCN(CCc2ccc(Nc3nc(-c4cnn(C)c4)cc4c(F)c[nH]c(=O)c34)cc2)CC1 [compound 442]
31 | 387 nM | Cn1ccc2cc(Nc3cnccn3)nc(Nc3ccc(C4CCN(C5COC5)CC4)cc3)c2c1=O [compound 346]
32 | 67 nM | Cc1ncc(-c2cc3cc[nH]c(=O)c3c(Nc3ccc(C4CCC(N(C)C)CC4)cc3)n2)cn1 (centres unmarked) [compound 106]
33 | 228 nM | O=c1[nH]ccc2cc(Nc3ccccn3)nc(NCCc3cccnc3)c12 [compound 289]
34 | 88 nM | COc1cncc(-c2cc3cc[nH]c(=O)c3c(Nc3ccc(C4CCN(C5CC5)CC4)c(C)c3)n2)n1 [compound 210]
35 | 53 nM | COc1cncc(-c2cc3cc[nH]c(=O)c3c(Nc3ccc(C4CCN(C(=O)C5(C)COC5)CC4)c(C)c3)n2)n1 [compound 75]
36 | 22 nM | COc1cncc(-c2cc3cc[nH]c(=O)c3c(Nc3ccc(C4CN(CCS(C)(=O)=O)C4)cc3)n2)n1 [compound 148]
37 | 2220 nM | Cc1ccc(Nc2cc3cc[nH]c(=O)c3c(Nc3ccc(N4CCO[C@H](C)C4)c(C)c3)n2)nc1 [compound 582]
38 | 158 nM | Cc1ccnc(Nc2cc3ccn(C)c(=O)c3c(NC[C@H]3CCCO3)n2)c1 [compound 512]
39 | 86 nM | Cc1ccnc(Nc2cc3cc[nH]c(=O)c3c(NCC3CCNCC3)n2)c1 [compound 554]
40 | 343 nM | CCN1CCN(CCc2ccc(Nc3nc(-c4cncc(OC)n4)cc4c(F)c[nH]c(=O)c34)cc2)CC1 [compound 440]
41 | 166 nM | Cc1ccnc(Nc2cc3cc[nH]c(=O)c3c(NCCc3cccnc3)n2)c1 [compound 284]
42 | 174 nM | COc1cncc(-c2cc3cc[nH]c(=O)c3c(Nc3ccc(C4CCN(C(=O)N5CCNC5=O)CC4)c(C)c3)n2)n1 [compound 114]
43 | 398 nM | COc1cncc(-c2cc3cc[nH]c(=O)c3c(Nc3ccc(C4CCN(C(=O)C(O)C(C)C)CC4)c(C)c3)n2)n1 (centres unmarked) [compound 6]

Row | IC50 | SMILES
44 | 35 nM | CCn1ccc2cc(Nc3cnccn3)nc(N[C@@H](C)CO)c2c1=O [compound 353]
45 | 63 nM | Cn1ccc2cc(Nc3cnccn3)nc(N[C@H]3CCOC3)c2c1=O [compound 329]
46 | 556 nM | CCCc1cc2cc[nH]c(=O)c2c(Nc2ccc(C3CCN(C4CC4)CC3)c(C)c2)n1 [compound 230]
47 | 62 nM | Cc1ccnc(Nc2cc3ccn(C)c(=O)c3c(Nc3ccc(C(N)=O)cc3)n2)c1 [compound 483]
48 | 294 nM | Cc1ccnc(Nc2cc3ccn(C)c(=O)c3c(Nc3cccc(S(N)(=O)=O)c3)n2)c1 [compound 352]
49 | 46 nM | COc1cncc(-c2cc3cc[nH]c(=O)c3c(Nc3ccc(C4CCN(C(C)C(N)=O)CC4)c(C)c3)n2)n1 (centres unmarked) [compound 136]
50 | 1120 nM | CC(=O)N1CCN(CCc2ccc(Nc3nc(Nc4ccc(C)cn4)cc4cc[nH]c(=O)c34)cc2)CC1 [compound 541]
51 | 52 nM | CC(C)Nc1nc(Nc2cnccn2)cc2ccn(CCO)c(=O)c12 [compound 318]
52 | 879 nM | Cn1ccc2cc(Nc3cnccn3)nc(Nc3cccc(S(N)(=O)=O)c3)c2c1=O [compound 339]
53 | 90 nM | CCn1ccc2cc(Nc3cc(C)c(F)cn3)nc(N[C@H]3CC[C@@H](O)CC3)c2c1=O [compound 393]
54 | 115 nM | Cc1ccnc(Nc2cc3cc[nH]c(=O)c3c(NCC(O)c3cccc(Cl)c3)n2)c1 (centres unmarked) [compound 496]
55 | 176 nM | Cc1ccnc(Nc2cc3cc[nH]c(=O)c3c(NC3CCCC3)n2)c1 [compound 292]
56 | 39 nM | COc1cncc(-c2cc3cc[nH]c(=O)c3c(Nc3ccc(CCN4CCC(OC)CC4)cc3)n2)n1 [compound 23]
57 | 324 nM | CCn1ccc2cc(Nc3cc(C)ccn3)nc(N[C@H]3CCCC[C@H]3O)c2c1=O (racemic) [compound 408]
58 | 54 nM | CC(C)Nc1nc(Nc2cc(Cl)ccn2)cc2cc[nH]c(=O)c12 [compound 484]
59 | 32 nM | Cc1ccnc(Nc2cc3ccn(C)c(=O)c3c(N[C@H]3CC[C@@H](O)CC3)n2)c1 [compound 326]
